Results taken from paper PMC7429850, “Critical enzymes for biosynthesis of cucurbitacin derivatives in watermelon and their biological significance” (Communications Biology, 2020).

Tested on: T1, ACT3 (Cla022713)
T1 construct: plant material in Methods: Number One
Assay type: biochemical, Citrullus lanatus
Details: 10 mM acetyl-CoA, 50 mM sodium phosphate pH 7.4, 30 °C; C16-O-acetylation
Excerpt: acetylation assay, product by HPLC/LC-MS, Michaelis-Menten fit on ACT3 (Cla022713)

| Structure (SMILES) | Km |
| --- | --- |
| CC(=O)OC(C)(C)/C=C/C(=O)[C@](C)(O)[C@H]1[C@H](O)C[C@@]2(C)[C@@H]3CC=C4[C@@H](C[C@H](O)C(=O)C4(C)C)[C@]3(C)C(=O)C[C@]12C [CuB] | 11.8 ± 1.74 µM |
| CC(C)(O)/C=C/C(=O)[C@](C)(O)[C@H]1[C@H](O)C[C@@]2(C)[C@@H]3CC=C4[C@@H](C[C@H](O)C(=O)C4(C)C)[C@]3(C)C(=O)C[C@]12C [CuD] | 10.4 ± 1.19 µM |
| CC(=O)OC(C)(C)/C=C/C(=O)[C@](C)(O)[C@H]1[C@H](O)C[C@@]2(C)[C@@H]3CC=C4[C@@H](C=C(O[C@@H]5O[C@H](CO)[C@@H](O)[C@H](O)[C@H]5O)C(=O)C4(C)C)[C@]3(C)C(=O)C[C@]12C [CuE-Glu] | 11.6 ± 1.62 µM |
| CC(=O)OC(C)(C)/C=C/C(=O)[C@](C)(O)[C@H]1[C@H](O)C[C@@]2(C)[C@@H]3CC=C4[C@@H](C=C(O)C(=O)C4(C)C)[C@]3(C)C(=O)C[C@]12C [CuE] | 7.63 ± 4.83 µM |
| CC(C)(O)/C=C/C(=O)[C@](C)(O)[C@H]1[C@H](O)C[C@@]2(C)[C@@H]3CC=C4[C@@H](C=C(O)C(=O)C4(C)C)[C@]3(C)C(=O)C[C@]12C [CuI] | 8.62 ± 0.95 µM |
